In patent publication US10168342B2, “Lipid probes and uses thereof” (THE SCRIPPS RESEARCH INSTITUTE, priority 2015, dated 2019):

Experiments:
Assay type in all cases: cell-based
[1] = target: T1, lipid-binding proteins in A549 cells (Homo sapiens, UniProt Q9UH99); assay: SILAC MS mapping of UV-dependent lipid probe targets in A549 cells; settings: protein SUN2 (Q9UH99), A-DA probe
T1 construct: endogenous in cells; host or cells: A549 (PMA-stimulated for the PTGS2 experiments)

[2] = target: T2, lipid-binding proteins in A549 cells (Homo sapiens, UniProt P07602); assay: as above; settings: A-DA probe vs NoUV
T2 construct: endogenous in cells; host or cells: A549 (PMA-stimulated for the PTGS2 experiments)

[3] = target: T3, lipid-binding proteins in A549 cells (Homo sapiens, UniProt O95470); assay: as above; settings: A-DA probe vs NoUV
T3 construct: endogenous in cells; host or cells: A549 (PMA-stimulated for the PTGS2 experiments)

[4] = target: T4, lipid-binding proteins in A549 cells (Homo sapiens, UniProt Q96KC8); assay: as above; settings: A-DA probe vs NoUV
T4 construct: endogenous in cells; host or cells: A549 (PMA-stimulated for the PTGS2 experiments)

[5] = target: T5, lipid-binding proteins in A549 cells (Homo sapiens, UniProt O15173); assay: as above; settings: A-DA probe vs NoUV
T5 construct: endogenous in cells; host or cells: A549 (PMA-stimulated for the PTGS2 experiments)

[6] = target: T6, lipid-binding proteins in A549 cells (Homo sapiens, UniProt P30519); assay: as above; settings: A-DA probe vs NoUV
T6 construct: endogenous in cells; host or cells: A549 (PMA-stimulated for the PTGS2 experiments)

[7] = target: T7, lipid-binding proteins in A549 cells (Homo sapiens, UniProt P21796); assay: as above; settings: A-DA probe vs NoUV
T7 construct: endogenous in cells; host or cells: A549 (PMA-stimulated for the PTGS2 experiments)

[8] = target: T8, lipid-binding proteins in A549 cells (Homo sapiens, UniProt Q8IZV5); assay: as above; settings: A-DA probe vs NoUV
T8 construct: endogenous in cells; host or cells: A549 (PMA-stimulated for the PTGS2 experiments)

[9] = target: T9, lipid-binding proteins in A549 cells (Homo sapiens, UniProt Q9HAW7); assay: as above; settings: A-DA probe vs NoUV
T9 construct: endogenous in cells; host or cells: A549 (PMA-stimulated for the PTGS2 experiments)

[10] = target: T10, lipid-binding proteins in A549 cells (Homo sapiens, UniProt Q9NS69); assay: as above; settings: A-DA probe vs NoUV
T10 construct: endogenous in cells; host or cells: A549 (PMA-stimulated for the PTGS2 experiments)

[11] = target: T11, lipid-binding proteins in A549 cells (Homo sapiens, UniProt Q7Z2K6); assay: as above; settings: A-DA probe vs NoUV
T11 construct: endogenous in cells; host or cells: A549 (PMA-stimulated for the PTGS2 experiments)

[12] = target: T12, lipid-binding proteins in A549 cells (Homo sapiens, UniProt Q14534); assay: as above; settings: A-DA probe vs NoUV
T12 construct: endogenous in cells; host or cells: A549 (PMA-stimulated for the PTGS2 experiments)

[13] = target: T13, lipid-binding proteins in A549 cells (Homo sapiens, UniProt Q8NF37); assay: as above; settings: A-DA probe vs NoUV
T13 construct: endogenous in cells; host or cells: A549 (PMA-stimulated for the PTGS2 experiments)

[14] = target: T14, lipid-binding proteins in A549 cells (Homo sapiens, UniProt Q9Y639); assay: as above; settings: A-DA probe vs NoUV
T14 construct: endogenous in cells; host or cells: A549 (PMA-stimulated for the PTGS2 experiments)

[15] = target: T15, lipid-binding proteins in A549 cells (Homo sapiens, UniProt P07093); assay: as above; settings: protein SERPINE2 (P07093), A-DA probe
T15 construct: endogenous in cells; host or cells: A549 (PMA-stimulated for the PTGS2 experiments)

[16] = target: T16, lipid-binding proteins in A549 cells (Homo sapiens, UniProt Q9H6K4); assay: as above; settings: A-DA probe vs NoUV
T16 construct: endogenous in cells; host or cells: A549 (PMA-stimulated for the PTGS2 experiments)

[17] = target: T17, lipid-binding proteins in A549 cells (Homo sapiens, UniProt Q5HYK3); assay: as above; settings: A-DA probe vs NoUV
T17 construct: endogenous in cells; host or cells: A549 (PMA-stimulated for the PTGS2 experiments)

[18] = target: T18, lipid-binding proteins in A549 cells (Homo sapiens, UniProt Q53GQ0); assay: as above; settings: A-DA probe vs NoUV
T18 construct: endogenous in cells; host or cells: A549 (PMA-stimulated for the PTGS2 experiments)

[19] = target: T19, lipid-binding proteins in A549 cells (Homo sapiens, UniProt O75911); assay: as above; settings: A-DA probe vs NoUV
T19 construct: endogenous in cells; host or cells: A549 (PMA-stimulated for the PTGS2 experiments)

[20] = target: T20, lipid-binding proteins in A549 cells (Homo sapiens, UniProt Q99536); assay: as above; settings: A-DA probe vs NoUV
T20 construct: endogenous in cells; host or cells: A549 (PMA-stimulated for the PTGS2 experiments)

[21] = target: T21, lipid-binding proteins in A549 cells (Homo sapiens, UniProt Q8N5I4); assay: as above; settings: A-DA probe vs NoUV
T21 construct: endogenous in cells; host or cells: A549 (PMA-stimulated for the PTGS2 experiments)

[22] = target: T22, lipid-binding proteins in A549 cells (Homo sapiens, UniProt P67812); assay: as above; settings: A-DA probe vs NoUV
T22 construct: endogenous in cells; host or cells: A549 (PMA-stimulated for the PTGS2 experiments)

[23] = target: T23, lipid-binding proteins in A549 cells (Homo sapiens, UniProt Q9NX47); assay: as above; settings: A-DA probe vs NoUV
T23 construct: endogenous in cells; host or cells: A549 (PMA-stimulated for the PTGS2 experiments)

[24] = target: T24, lipid-binding proteins in A549 cells (Homo sapiens, UniProt P45880); assay: as above; settings: A-DA probe vs NoUV
T24 construct: endogenous in cells; host or cells: A549 (PMA-stimulated for the PTGS2 experiments)

[25] = target: T25, lipid-binding proteins in A549 cells (Homo sapiens, UniProt Q96G23); assay: as above; settings: A-DA probe vs NoUV
T25 construct: endogenous in cells; host or cells: A549 (PMA-stimulated for the PTGS2 experiments)

[26] = target: T26, lipid-binding proteins in A549 cells (Homo sapiens, UniProt Q6P1A2); assay: as above; settings: A-DA probe vs NoUV
T26 construct: endogenous in cells; host or cells: A549 (PMA-stimulated for the PTGS2 experiments)

[27] = target: T27, lipid-binding proteins in A549 cells (Homo sapiens, UniProt P35354); assay: as above
T27 construct: endogenous in cells; host or cells: A549 (PMA-stimulated for the PTGS2 experiments)

[28] = target: T28, lipid-binding proteins in A549 cells (Homo sapiens, UniProt P50402); assay: as above; settings: A-DA probe vs NoUV
T28 construct: endogenous in cells; host or cells: A549 (PMA-stimulated for the PTGS2 experiments)

[29] = target: T29, lipid-binding proteins in A549 cells (Homo sapiens, UniProt Q86XL3); assay: as above; settings: A-DA probe vs NoUV
T29 construct: endogenous in cells; host or cells: A549 (PMA-stimulated for the PTGS2 experiments)

[30] = target: T30, lipid-binding proteins in A549 cells (Homo sapiens, UniProt Q15738); assay: as above; settings: A-DA probe vs NoUV
T30 construct: endogenous in cells; host or cells: A549 (PMA-stimulated for the PTGS2 experiments)

[31] = target: T31, lipid-binding proteins in A549 cells (Homo sapiens, UniProt Q9BTX1); assay: as above; settings: A-DA probe vs NoUV
T31 construct: endogenous in cells; host or cells: A549 (PMA-stimulated for the PTGS2 experiments)

[32] = target: T32, lipid-binding proteins in Neuro2a cells (Mus musculus, UniProt Q8VCD6); assay: SILAC MS mapping of lipid probe targets (probe-versus-No UV, probe-versus-probe) in Neuro2a cells; settings: A-DA probe, No UV control, target protein Reep2 (Q8VCD6)
T32 construct: endogenous in cells; host or cells: Neuro2a

T27 sequence (P35354 18-604): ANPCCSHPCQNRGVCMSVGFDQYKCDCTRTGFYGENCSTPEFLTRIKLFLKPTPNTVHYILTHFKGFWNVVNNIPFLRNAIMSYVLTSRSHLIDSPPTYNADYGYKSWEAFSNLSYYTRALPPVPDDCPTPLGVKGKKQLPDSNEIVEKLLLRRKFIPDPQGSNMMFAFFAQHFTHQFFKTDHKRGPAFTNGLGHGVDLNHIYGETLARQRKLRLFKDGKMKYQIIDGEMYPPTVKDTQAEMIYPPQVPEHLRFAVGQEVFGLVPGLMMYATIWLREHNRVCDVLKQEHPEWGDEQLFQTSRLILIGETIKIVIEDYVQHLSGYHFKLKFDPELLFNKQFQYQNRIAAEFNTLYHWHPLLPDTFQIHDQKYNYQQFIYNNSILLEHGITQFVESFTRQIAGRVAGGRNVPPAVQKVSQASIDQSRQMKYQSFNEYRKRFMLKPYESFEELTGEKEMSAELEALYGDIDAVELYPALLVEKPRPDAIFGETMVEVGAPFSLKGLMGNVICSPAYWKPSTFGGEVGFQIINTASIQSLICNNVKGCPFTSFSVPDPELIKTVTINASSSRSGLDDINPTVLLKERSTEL
T30 sequence (Q15738 whole entry): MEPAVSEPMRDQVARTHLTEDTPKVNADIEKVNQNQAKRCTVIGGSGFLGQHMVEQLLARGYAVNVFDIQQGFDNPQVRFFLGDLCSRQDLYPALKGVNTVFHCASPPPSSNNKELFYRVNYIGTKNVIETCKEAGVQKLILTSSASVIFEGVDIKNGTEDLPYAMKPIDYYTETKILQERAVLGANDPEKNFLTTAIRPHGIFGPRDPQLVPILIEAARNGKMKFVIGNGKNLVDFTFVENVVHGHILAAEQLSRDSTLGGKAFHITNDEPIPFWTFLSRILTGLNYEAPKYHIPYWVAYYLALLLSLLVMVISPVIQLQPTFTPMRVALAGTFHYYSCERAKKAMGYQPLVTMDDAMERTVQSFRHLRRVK
T15 sequence (P07093 20-398): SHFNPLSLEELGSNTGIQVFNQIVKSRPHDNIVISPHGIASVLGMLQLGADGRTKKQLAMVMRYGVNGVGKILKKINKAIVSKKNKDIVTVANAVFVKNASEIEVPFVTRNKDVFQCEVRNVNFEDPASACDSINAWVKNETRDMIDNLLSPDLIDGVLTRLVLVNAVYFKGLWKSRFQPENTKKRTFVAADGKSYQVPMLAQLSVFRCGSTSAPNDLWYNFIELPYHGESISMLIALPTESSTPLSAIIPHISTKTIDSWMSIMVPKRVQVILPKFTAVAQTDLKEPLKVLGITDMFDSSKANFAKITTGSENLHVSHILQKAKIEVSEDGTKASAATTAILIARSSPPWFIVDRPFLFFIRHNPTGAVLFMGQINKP
T6 sequence (P30519 whole entry): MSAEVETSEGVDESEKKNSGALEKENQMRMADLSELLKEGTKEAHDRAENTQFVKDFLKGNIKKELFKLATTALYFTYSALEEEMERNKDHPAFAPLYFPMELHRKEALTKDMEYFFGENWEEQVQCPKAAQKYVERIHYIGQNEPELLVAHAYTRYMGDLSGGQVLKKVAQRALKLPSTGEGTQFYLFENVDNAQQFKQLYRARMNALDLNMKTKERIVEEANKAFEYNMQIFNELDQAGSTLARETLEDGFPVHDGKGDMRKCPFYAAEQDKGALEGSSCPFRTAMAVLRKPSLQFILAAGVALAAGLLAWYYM
T23 sequence (Q9NX47 whole entry): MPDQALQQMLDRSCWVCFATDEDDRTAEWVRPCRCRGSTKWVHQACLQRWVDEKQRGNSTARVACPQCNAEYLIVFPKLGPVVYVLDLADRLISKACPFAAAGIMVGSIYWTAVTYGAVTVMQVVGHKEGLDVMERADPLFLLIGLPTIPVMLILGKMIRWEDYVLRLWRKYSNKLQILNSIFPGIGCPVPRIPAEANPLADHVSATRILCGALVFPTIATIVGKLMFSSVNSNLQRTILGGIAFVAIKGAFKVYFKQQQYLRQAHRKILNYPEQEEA
T12 sequence (Q14534 whole entry): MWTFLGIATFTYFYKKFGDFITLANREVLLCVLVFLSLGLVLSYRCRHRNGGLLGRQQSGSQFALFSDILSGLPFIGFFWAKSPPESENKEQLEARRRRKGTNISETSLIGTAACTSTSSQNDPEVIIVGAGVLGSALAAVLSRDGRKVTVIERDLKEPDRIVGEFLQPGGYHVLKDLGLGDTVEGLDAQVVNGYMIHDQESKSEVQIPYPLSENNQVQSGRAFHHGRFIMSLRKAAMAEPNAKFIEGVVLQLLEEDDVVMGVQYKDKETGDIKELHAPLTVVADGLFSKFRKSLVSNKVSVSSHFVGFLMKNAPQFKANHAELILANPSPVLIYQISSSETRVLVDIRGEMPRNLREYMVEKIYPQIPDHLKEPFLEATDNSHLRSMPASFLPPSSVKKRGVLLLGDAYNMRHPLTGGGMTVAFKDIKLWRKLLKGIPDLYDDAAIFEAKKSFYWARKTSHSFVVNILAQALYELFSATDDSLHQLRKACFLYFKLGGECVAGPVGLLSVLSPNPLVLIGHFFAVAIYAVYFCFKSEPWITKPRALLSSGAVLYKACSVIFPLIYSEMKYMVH
T20 sequence (Q99536 whole entry): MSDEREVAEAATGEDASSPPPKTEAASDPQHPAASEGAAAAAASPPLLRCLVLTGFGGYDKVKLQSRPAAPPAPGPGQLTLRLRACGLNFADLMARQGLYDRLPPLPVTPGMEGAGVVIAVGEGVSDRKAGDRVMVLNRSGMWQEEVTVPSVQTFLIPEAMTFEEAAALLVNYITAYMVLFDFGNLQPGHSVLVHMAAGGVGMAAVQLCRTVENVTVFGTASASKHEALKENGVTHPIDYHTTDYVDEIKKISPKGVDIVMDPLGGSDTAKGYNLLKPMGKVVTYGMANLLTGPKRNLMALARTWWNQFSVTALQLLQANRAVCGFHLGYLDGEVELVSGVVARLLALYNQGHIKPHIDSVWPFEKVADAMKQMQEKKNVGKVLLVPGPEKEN
T26 sequence (Q6P1A2 whole entry): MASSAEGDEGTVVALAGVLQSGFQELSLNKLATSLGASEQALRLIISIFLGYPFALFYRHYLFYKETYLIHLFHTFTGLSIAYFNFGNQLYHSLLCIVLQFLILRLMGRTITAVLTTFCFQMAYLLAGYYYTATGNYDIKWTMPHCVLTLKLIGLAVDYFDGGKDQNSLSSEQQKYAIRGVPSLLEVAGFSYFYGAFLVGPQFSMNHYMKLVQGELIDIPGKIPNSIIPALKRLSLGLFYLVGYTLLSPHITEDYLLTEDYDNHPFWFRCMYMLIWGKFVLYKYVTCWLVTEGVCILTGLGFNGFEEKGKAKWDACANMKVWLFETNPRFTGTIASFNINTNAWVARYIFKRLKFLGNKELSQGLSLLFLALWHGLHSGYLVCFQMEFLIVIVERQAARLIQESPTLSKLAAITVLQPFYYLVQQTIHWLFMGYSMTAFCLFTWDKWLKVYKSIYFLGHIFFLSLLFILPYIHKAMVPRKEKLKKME
T2 sequence (P07602 60-524): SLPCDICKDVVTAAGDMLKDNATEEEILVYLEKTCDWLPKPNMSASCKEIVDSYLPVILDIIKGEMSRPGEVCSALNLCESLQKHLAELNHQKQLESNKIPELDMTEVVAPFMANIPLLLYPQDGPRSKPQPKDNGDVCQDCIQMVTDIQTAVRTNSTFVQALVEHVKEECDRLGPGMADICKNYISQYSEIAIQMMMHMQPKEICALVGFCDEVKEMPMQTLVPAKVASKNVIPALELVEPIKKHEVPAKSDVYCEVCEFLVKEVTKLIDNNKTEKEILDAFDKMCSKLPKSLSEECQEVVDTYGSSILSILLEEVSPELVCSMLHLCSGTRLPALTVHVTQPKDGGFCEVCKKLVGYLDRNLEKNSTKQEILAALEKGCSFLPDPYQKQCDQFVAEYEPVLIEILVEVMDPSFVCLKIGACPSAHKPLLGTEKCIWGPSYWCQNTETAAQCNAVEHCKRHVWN
T28 sequence (P50402 whole entry): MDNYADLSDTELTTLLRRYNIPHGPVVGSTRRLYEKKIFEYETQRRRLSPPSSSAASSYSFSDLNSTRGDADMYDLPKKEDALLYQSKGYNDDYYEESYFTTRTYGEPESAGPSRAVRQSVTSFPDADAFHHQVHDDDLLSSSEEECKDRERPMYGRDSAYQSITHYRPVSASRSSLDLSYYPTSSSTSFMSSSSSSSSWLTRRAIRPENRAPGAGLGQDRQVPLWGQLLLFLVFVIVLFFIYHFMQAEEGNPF
T8 sequence (Q8IZV5 whole entry): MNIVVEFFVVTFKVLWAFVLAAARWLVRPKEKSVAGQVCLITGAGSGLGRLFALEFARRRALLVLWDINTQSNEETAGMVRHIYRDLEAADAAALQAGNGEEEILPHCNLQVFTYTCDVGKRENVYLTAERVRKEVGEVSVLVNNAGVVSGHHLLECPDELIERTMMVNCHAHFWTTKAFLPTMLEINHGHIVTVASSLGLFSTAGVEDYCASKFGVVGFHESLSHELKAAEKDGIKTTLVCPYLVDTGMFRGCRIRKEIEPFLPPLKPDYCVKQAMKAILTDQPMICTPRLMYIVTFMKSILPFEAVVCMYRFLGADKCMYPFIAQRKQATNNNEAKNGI
T25 sequence (Q96G23 whole entry): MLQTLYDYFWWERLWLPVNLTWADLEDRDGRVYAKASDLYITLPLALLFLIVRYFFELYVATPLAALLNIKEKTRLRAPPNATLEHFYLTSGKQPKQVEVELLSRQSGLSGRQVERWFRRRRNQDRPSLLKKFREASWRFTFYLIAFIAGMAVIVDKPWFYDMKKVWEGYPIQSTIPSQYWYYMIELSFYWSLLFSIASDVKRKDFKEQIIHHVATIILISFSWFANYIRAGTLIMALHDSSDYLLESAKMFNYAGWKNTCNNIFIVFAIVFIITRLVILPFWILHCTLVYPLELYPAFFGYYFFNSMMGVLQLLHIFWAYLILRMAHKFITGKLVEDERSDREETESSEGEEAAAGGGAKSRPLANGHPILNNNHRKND

For `C#CCCC/C=C\C/C=C\C/C=C\C/C=C\CCCC(=O)NCCC1(C)N=N1` [A-DA, (5Z,8Z,11Z,14Z)-N-(2-(3-methyl-3H-diazirin-3-yl)ethyl)icosa-5,8,11,14-tetraen-19-ynamide], the “SILAC ratio, No UV (A-DA probe versus No UV)” value [1] was 20.0, the “SILAC ratio, PSAP (P07602)” value [2] was 20.0 and the “SILAC ratio, SGPL1 (O95470)” value [3] was 19.7. For the same compound, the “SILAC ratio, DNAJC1 (Q96KC8)” value [4] was 20.0, the “SILAC ratio, PGRMC2 (Q80UU9)” value [5] was 20.0 and the “SILAC ratio, HMOX2 (P30519)” value [6] was 20.0. The “SILAC ratio, VDAC1 (P21796)” value [7] was 20.0, the “SILAC ratio, RDH10 (Q8IZV5)” value [8] was 20.0 and the “SILAC ratio, UGT1A7 (Q9HAW7)” value [9] was 20.0. The “SILAC ratio, TOMM22 (Q9CPQ3)” value [10] was 18.4, the “SILAC ratio, ERMP1 (Q7Z2K6)” value [11] was 20.0 and the “SILAC ratio, SQLE (Q14534)” value [12] was 20.0. For the same compound, the “SILAC ratio, LPCAT1 (Q8NF37)” value [13] was 20.0, the “SILAC ratio, NPTN (Q9Y639)” value [14] was 20.0 and the “SILAC ratio, No UV (A-DA probe versus No UV)” value [15] was 4.5. The “SILAC ratio, OPA3 (Q505D7)” value [16] was 20.0, the “SILAC ratio, COQ5 (Q5HYK3)” value [17] was 20.0 and the “SILAC ratio, HSD17B12 (Q53GQ0)” value [18] was 20.0. The “SILAC ratio, DHRS3 (O75911)” value [19] was 15.6, the “SILAC ratio, VAT1 (Q99536)” value [20] was 7.8 and the “SILAC ratio, DHRSX (Q8N5I4)” value [21] was 20.0. For the same compound, the “SILAC ratio, SEC11A (P67812)” value [22] was 20.0, the “SILAC ratio, MARCH5 (Q3KNM2)” value [23] was 4.1 and the “SILAC ratio, VDAC2 (P45880)” value [24] was 19.7. For the same compound, the “SILAC ratio, CERS2 (Q924Z4)” value [25] was 13.3, the “SILAC ratio, LPCAT3 (Q6P1A2)” value [26] was 20.0 and the “SILAC ratio of PTGS2, probe versus No UV” value ([27]; A-DA 5 μM) was 3.2. For the same compound, the “SILAC ratio, PTGS2 (P35354)” value ([27]; A-DA probe vs NoUV) was 3.2, the “SILAC ratio, EMD (O08579)” value [28] was 10.3 and the “SILAC ratio, ANKLE2 (Q86XL3)” value [29] was 20.0. For the same compound, the “SILAC ratio, NSDHL (Q15738)” value [30] was 16.9, the “SILAC ratio, TMEM48 (Q8VCB1)” value [31] was 20.0 and the “SILAC ratio, No UV (A-DA probe versus No UV), Reep2 (Q8VCD6)” value [32] was 20.0.
